# Results published in US20110294722A1, “ANTIMICROBIAL PEPTIDES” (priority 2008, published 2011).
# Like-named read-outs stand apart in the source and are kept apart here. No end group written: not given here.
# How the values were obtained:
# [1] = tested on: Pseudomonas syringae pv. syringae
# Pseudomonas corrugata [2] = tested on: Pseudomonas corrugata
# [3] = tested on: Pseudomonas syringae pv. tomato
# [4] = tested on: Pectobacterium carotovorum sub. carotovorum
# Alternaria alternata = assay: In-vitro inhibition assay (MIC), Example 2; format: cell-based; conditions: OD590 nm
# Procedure: (§1) In-vitro inhibition assays were performed in sterile flat-bottom 96-well plates (Greiner bio-one, Frickenhausen). Antimicrobial peptides were dissolved in 0.01% acetic acid containing 0.2% BSA (500 μg/ml), filter sterilized and stored at −20° C. For inhibition assays dilutions of peptides ranging from 5 to 200 μg/ml were prepared and 10 μl (antibacterial assay) or 20 μl (antifungal assay) of each concentration was loaded per well.
# (§2) Spores of fungi were collected by water washes of sporulating cultures grown on 2% malt extract agar and spore concentration was determined by microscopy. The concentration of the spores was adjusted to 1.5-2×10^3 spores/ml in 2% malt extract medium and 80 μl of fungal spores were added per well. The final peptide concentrations used in the fungal inhibition assays were […]. After overnight incubation at room temperature the plate were put on a rotary shaker (300 rpm) for further two days to ensure consistantly growth. Antifungal effects of the peptides were determined by a microplate reader (Alternaria, Fusarium) at OD590 nm or by visual screening of the plates (Botrytis, Cladosporium).
# (§3) The lowest peptide concentration leading to complete inhibition of bacterial growth or spore germination/mycelial growth (minimal inhibition concentration, MIC) was determined for each organism-peptide combination. For each peptide concentration two identical inhibition assays were performed.
# Botrytis cinerea = assay: In-vitro inhibition assay (MIC), Example 2; format: cell-based; conditions: visual screening
# Procedure: as §1, §2, §3
# Cladosporium herbarum = assay: In-vitro inhibition assay (MIC), Example 2; format: cell-based; conditions: visual screening
# Procedure: as §1, §2, §3
# Xanthomonas vesicatoria [5] = tested on: Xanthomonas vesicatoria
# phytopathogenic fungi = assay: Antifungal inhibition assay, summary statement; format: cell-based; conditions: summary of Table 1
# Procedure: as §1, §2
# The lowest peptide concentration leading to complete inhibition of bacterial growth or spore germination/mycelial growth (minimal inhibition concentration, MIC) was determined for each organism-peptide combination. […]
# [6] = tested on: Clavibacter michiganensis sub. michiganensis; conditions: overnight 25° C.
# [7] = tested on: Clavibacter michiganensis; assay: In-vitro inhibition assay (MIC and LC), Example 3; format: cell-based
# Procedure: (§4) In-vitro inhibition assays were performed in sterile flat-bottom 96-well plates (Greiner bio-one, Frickenhausen). Antimicrobial peptides were dissolved in 0.01% acetic acid containing 0.2% BSA (500 μg/ml), filter sterilized and stored at −20° C. For inhibition assays dilutions of peptides ranging from 5 to 200 μg/ml were prepared and 10 μl (antibacterial assay) or 20 (antifungal assay) of each concentration was loaded per well.
# (§5) Bacteria colonies from overnight agar plate cultures were resuspended into 5 ml LB-medium or HPG-medium (OD600 nm=0.08-0.1) and diluted into LB-medium/HPG-medium (1:100). 90 μl of this suspension containing about 10^5-10^6 CFU/ml of tested bacteria were added to each well resulting in final peptide concentrations of 0, 0.5, 1, 2, 5, 10, and 20 μg/ml. […] The lowest concentration, in which there is no observable growth (>90% inhibition) is referred to as minimal inhibitory concentration (MIC). […] For each peptide concentration two identical inhibition assays were performed.
# Xanthomonas vesicatoria [8] = assay: In-vitro inhibition assay (MIC and LC), Example 3; format: cell-based
# Procedure: as §4, §5
# Pseudomonas corrugata [9] = format: cell-based
# Procedure: as §4, §5
# [10] = tested on: Pectobacterium carotovorum; format: cell-based
# Procedure: as §4, §5
# [11] = tested on: Pseudomonas syringae pv. tomato; format: cell-based
# Procedure: as §4, §5
# [12] = tested on: Pseudomonas syringae pv. syringae; format: cell-based
# Procedure: as §4, §5
substance,measurement,setting,value
"SP1-D: Polypeptide SP1 (RKKRLKLLKRLV) with D-amino acids incorporated; D positions marked bold/italic in b61, not recoverable (also: D-amino acids at unstated positions)",Minimal inhibition concentration (MIC) for complete inhibition of bacterial growth,"[1]; Pseudomonas syringae pv. syringae, overnight 25° C.",5 µg/mL
same,Minimal inhibition concentration (MIC) for complete inhibition of bacterial growth,"Pseudomonas corrugata [2]; Pseudomonas corrugata, overnight 25° C.",20 µg/mL
same,Minimal inhibition concentration (MIC) for complete inhibition of bacterial growth,"[3]; Pseudomonas syringae pv. tomato, overnight 25° C.",5 µg/mL
same,Minimal inhibition concentration (MIC) for complete inhibition of bacterial growth,"[4]; Pectobacterium carotovorum sub. carotovorum, overnight 25° C.",>40 µg/mL
same,Minimal inhibition concentration (MIC) for complete inhibition of spore germination/mycelial growth,Alternaria alternata,20 µg/mL
same,Minimal inhibition concentration (MIC) for complete inhibition of spore germination/mycelial growth,Botrytis cinerea,>40 µg/mL
same,Minimal inhibition concentration (MIC) for complete inhibition of spore germination/mycelial growth,Cladosporium herbarum,20 µg/mL
same,Minimal inhibition concentration (MIC) for complete inhibition of bacterial growth,"Xanthomonas vesicatoria [5]; Xanthomonas vesicatoria, overnight 25° C.",40 µg/mL
same,Efficacy against phytopathogenic fungi,phytopathogenic fungi,high efficacy against phytopathogenic fungi
same,Minimal inhibition concentration (MIC) for complete inhibition of bacterial growth,[6],40 µg/mL
RKRAARLLKRLV-NH2 [Sp2],Minimal inhibition concentration (MIC) for complete inhibition of spore germination/mycelial growth,Alternaria alternata,>100 µg/mL
same,Minimal inhibition concentration (MIC) for complete inhibition of spore germination/mycelial growth,Botrytis cinerea,>100 µg/mL
same,Minimal inhibition concentration (MIC) for complete inhibition of spore germination/mycelial growth,Cladosporium herbarum,20 µg/mL
RKKRLKLLKRLV-NH2 [SP1],Minimal inhibition concentration (MIC) for complete inhibition of bacterial growth,[1],2 µg/mL
same,Minimal inhibition concentration (MIC) for complete inhibition of bacterial growth,Pseudomonas corrugata [2],2 µg/mL
same,MIC (>90% inhibition),[7]; 1-2 days at 25° C.,5.0/5.0 μg/ml
same,"LC (lethal concentration, 100% inhibition)",[7]; at least 4 days of incubation,5.0/5.0 μg/ml
same,MIC (>90% inhibition),Xanthomonas vesicatoria [8]; 1-2 days at 25° C.,0.5 µg/mL
same,"LC (lethal concentration, 100% inhibition)",Xanthomonas vesicatoria [8]; at least 4 days of incubation,1.0 µg/mL
same,MIC (>90% inhibition),Pseudomonas corrugata [9],0.5 µg/mL
same,"LC (lethal concentration, 100% inhibition)","Pseudomonas corrugata [9]; Pseudomonas corrugata, at least 4 days of incubation",1.0 µg/mL
same,MIC (>90% inhibition),[10],>10/>10 μg/ml
same,"LC (lethal concentration, 100% inhibition)","[10]; Pectobacterium carotovorum, at least 4 days of incubation",>10/>10 μg/ml
same,MIC (>90% inhibition),[11],10/10 μg/ml
same,"LC (lethal concentration, 100% inhibition)","[11]; Pseudomonas syringae pv. tomato, at least 4 days of incubation",10/10 μg/ml
same,MIC (>90% inhibition),[12],0.1 µg/mL
same,"LC (lethal concentration, 100% inhibition)","[12]; Pseudomonas syringae pv. syringae, at least 4 days of incubation",0.5 µg/mL
same,Minimal inhibition concentration (MIC) for complete inhibition of bacterial growth,[3],1 µg/mL
same,Minimal inhibition concentration (MIC) for complete inhibition of bacterial growth,[4],>40 µg/mL
same,Minimal inhibition concentration (MIC) for complete inhibition of spore germination/mycelial growth,Alternaria alternata,>100 µg/mL
same,Minimal inhibition concentration (MIC) for complete inhibition of spore germination/mycelial growth,Botrytis cinerea,>100 µg/mL
same,Minimal inhibition concentration (MIC) for complete inhibition of spore germination/mycelial growth,Cladosporium herbarum,10 µg/mL
same,Minimal inhibition concentration (MIC) for complete inhibition of bacterial growth,Xanthomonas vesicatoria [5],2 µg/mL
same,Minimal inhibition concentration (MIC) for complete inhibition of bacterial growth,[6],1 µg/mL
"KKKAARALKRAL-NH2 [Sp4, KKKAARALKRAL]",Minimal inhibition concentration (MIC) for complete inhibition of spore germination/mycelial growth,Alternaria alternata,>100 µg/mL
same,Minimal inhibition concentration (MIC) for complete inhibition of spore germination/mycelial growth,Botrytis cinerea,>100 µg/mL
same,Minimal inhibition concentration (MIC) for complete inhibition of spore germination/mycelial growth,Cladosporium herbarum,40 µg/mL
